Test results as given in US12319703B2, “Macrocyclic fused pyrazoles as Mcl-1 inhibitors” (ASCENTAGE PHARMA (SUZHOU) CO., LTD., priority 2019, dated 2025).

Key:
[1] = molecular target: T1, Mcl-1 protein (residues 171-323) (Homo sapiens, UniProt Q07820); assay: Inhibition of Mcl-1 by fluorescence polarization (FP) competitive binding assay; settings: FAM-Bid tracer 2 nM, Mcl-1 20 nM, 30 min
T1 construct: Tag-free Mcl-1 protein (residues 171-323) was used in the FP assay
Description: Inhibition of Mcl-1 by Fluorescence Polarization (FP) Assay.
The method used a fluorescein labelled peptide (FAM-Bid) which binds to the Mcl-1 protein leading to an increased anisotropy measured in milli-polarization (mP) values using a plate reader.
A 10-points serial dilution of each compound was prepared in DMSO and 5 μL solution was transferred into flat bottomed, 96-well back plate (final DMSO concentration 5%). 120 μL of Buffer (PBS, 0.01% BGG (Sigma Cat. #SRE0011), 0.01% Triton X-100), containing the Fluorescein labelled peptide (Final concentration 2 nM) and Mcl-1 protein (final concentration 20 nM) was then added. […] 10-points dose response curves were plotted with GraphPad software using Sigmoidal Dose-Response Model and the IC50 values were determined by nonlinear regression fitting of the competition curves.

OPM-2 cells = assay: Cell viability assay (OPM-2 cells), CCK-8; type: cell-based; settings: Homo sapiens, OPM-2, 24 h, WST, 5% FBS, read-out: OPM2 (WST, 5% FBS)
Description: Cell Viability Assay (OPM-2 Cells)
OPM-2 cells were obtained from Deutsche Sammlung von Mikroorganismen und Zellkulturen GmbH (DSMZ). […]
The effect of representative Compounds of the Disclosure on cell viability was determined using Cell Counting Kit-8 (CCK-8) assay (Shanghai Life iLab Bio Technology) according to the manufacturer's instructions. Each tested compound was serially diluted in culture medium, 100 μL of the compound dilution was added into 96-well plates. 100 μL of an OPM-2 cell suspension (20000 cells/well) in culture medium were seeded into the corresponding well of the plate and the cells were incubated at 37° C. in an atmosphere of 5% CO2 for 24 hours. In the next day, 20 μL of CCK-8 solution was added to each well of the plate and incubated for 4 hours.
The plates were read at 450 nm on the microplate spectrophotometer (SpectraMax plus 384, Molecular devices). The readings were normalized to the vehicle cells, and the IC50 was calculated by nonlinear regression analysis using GraphPad Prism 6 software.

NCI-H929 cells = assay: Cell viability assay (NCI-H929 cells), CCK-8; type: cell-based; settings: Homo sapiens, NCI-H929, 24 h, WST, 5% FBS
Description: Cell Viability Assay (NCI-H929 Cells)
NCI-H929 cells were obtained from American Type Culture Collection (ATCC). Cells were maintained in the recommended culture medium (RPMI 1640) with 10% FBS and 0.05 mM BME at 37° C. and an atmosphere of 5% CO2.
The effect of Compounds on cell viability was determined using Cell Counting Kit-8 (CCK-8) assay according to the manufacturer's instructions. 95 μL of NCI-H929 cell suspension (20000 cells/well) in culture medium were seeded into 96-well plates and cultured 4 hrs. Each tested compound was serially diluted in DMSO, then 5 μL of the compound or DMSO was diluted in 95 μL medium once more. At last, 5 μL of the compound dilution was added to the corresponding well of the cell plate. After the addition of the tested compound, the cells were incubated at 37° C. in an atmosphere of 5% CO2 for 24 hrs. At the end, 10 μL of CCK-8 solution was added to each well of the plate and incubated for 1-4 hours. The plates were read at 450 nm on the microplate reader (BioTek Synergy 1MF). The readings were normalized to the vehicle cells, and the IC50 was calculated by nonlinear regression analysis using GraphPad Prism 6 software.

T1 sequence (Q07820 171-323): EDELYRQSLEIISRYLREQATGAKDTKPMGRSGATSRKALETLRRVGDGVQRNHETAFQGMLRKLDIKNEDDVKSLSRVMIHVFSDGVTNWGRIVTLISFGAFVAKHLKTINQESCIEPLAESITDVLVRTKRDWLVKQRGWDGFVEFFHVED

Row | SMILES | IC50 [1] [µM] | IC50 (NCI-H929 cells) [µM] | IC50 (OPM-2 cells) [µM]
1 | Cn1nc2cc1CSc1cc(c3ccccc3c1)OCCCc1c(C(=O)O)n(C)c3c(c(Cl)ccc13)-c1c(nn3c1CCCC3)CSC2 [compound 20, (Z)-1^6-chloro-1^1,6^1-dimethyl-2^4,2^5,2^6,2^7-tetrahydro-1^1H,6^1H-10-oxa-4,8-dithia-2(3,2)-pyrazolo[1,5-a]pyridina-1(7,3)-indola-6(3,5)-pyrazola-9(3,1)-naphthalenacyclotridecaphane-1^2-carboxylic acid] | 0.0152 | 0.049 | 0.174
2 | Cn1nc2cc1CSc1cc(c3ccccc3c1)OCCCc1c(C(=O)O)n(C)c3c(c(Cl)ccc13)-c1c(nn3c1OCCC3)CSC2 [compound 22, (Z)-1^6-chloro-1^1,61-dimethyl-2^6,2^7-dihydro-1^1H,2^5H,6^1H-10-oxa-4,8-dithia-2(3,2)-pyrazolo[5,1-b][1,3]oxazina-1(7,3)-indola-6(3,5)-pyrazola-9(3,1)-naphthalenacyclotridecaphane-1^2-carboxylic acid] | 0.0159 | 0.225 | 1.15
3 | Cc1cc2ccc1CSCc1nn3c(c1-c1c(Cl)ccc4c(c(C(=O)O)n(C)c14)CCCOc1cc(cc4cc(F)ccc14)SC2)CCC3 [compound 29, 1^6-chloro-9^6-fluoro-1^1,6^2-dimethyl-2^5,2^6-dihydro-1^1H,2^4H-10-oxa-4,8-dithia-1(7,3)-indola-2(3,2)-pyrrolo[1,2-b]pyrazola-9(3,1)-naphthalena-6(1,4)-benzenacyclotridecaphane-1^2-carboxylic acid] | 0.0149 | 0.158 | 0.348
4 | Cn1c(C(=O)O)c2c3ccc(Cl)c(c31)-c1c(nn3c1CCC3)CSCc1ccc(cn1)CSc1cc(c3ccc(F)cc3c1)OCCC2 [compound 31, 1^6-chloro-9^6-fluoro-1^1-methyl-2^5,2^6-dihydro-1^1H,2^4H-10-oxa-4,8-dithia-1(7,3)-indola-2(3,2)-pyrrolo[1,2-b]pyrazola-6(2,5)-pyridina-9(3,1)-naphthalenacyclotridecaphane-1^2-carboxylic acid] | 0.014 | 0.063 | 0.125
5 | CC(=O)N1Cc2cc(n(C)n2)CSc2cc(c3ccccc3c2)OCCCc2c(C(=O)O)n(C)c3c(c(Cl)ccc23)-c2c(nn(C)c2C)C1 [compound 35, (Z)-4-acetyl-1^6-chloro-1^1,2^1,2^5,6^1-tetramethyl-1^1H,2^1H,6^1H-10-oxa-8-thia-4-aza-1(7,3)-indola-2(4,3),6(3,5)-dipyrazola-9(3,1)-naphthalenacyclotridecaphane-1^2-carboxylic acid] | 0.016 | 0.215 | 0.763
6 | Cn1nc2cc1CSc1cc(c3ccc(F)cc3c1)OCCCc1c(C(=O)O)n(C)c3c(c(Cl)ccc13)-c1c(nn3c1CCC3)CN(S(=O)(=O)Cc1ccccc1)C2 [compound 41, (Z)-4-(benzylsulfonyl)-1^6-chloro-9^6-fluoro-1,6^1-dimethyl-2^5,2^6-dihydro-1^1H,2^4H,6^1H-10-oxa-8-thia-4-aza-1(7,3)-indola-2(3,2)-pyrrolo[1,2-b]pyrazola-6(3,5)-pyrazola-9(3,1)-naphthalenacyclotridecaphane-1^2-carboxylic acid] | 0.012 | 0.366 | 0.327
7 | Cn1nc2cc1CSc1cc(c3ccc(F)cc3c1)OCCCc1c(C(=O)O)n(C)c3c(c(Cl)ccc13)-c1c(nn3c1COCC3)CN(S(=O)(=O)C1CC1)C2 [compound 43, (Z)-1^6-chloro-4-(cyclopropylsulfonyl)-9^6-fluoro-1^1,6^1-dimethyl-2^6,2^7-dihydro-1^1H,2^4H,6^1H-10-oxa-8-thia-4-aza-2(3,2)-pyrazolo[5,1-c][1,4]oxazina-1(7,3)-indola-6(3,5)-pyrazola-9(3,1)-naphthalenacyclotridecaphane-1^2-carboxylic acid] | 0.012 | 0.19 | 0.451
8 | Cc1c2c(nn1C)CN(CCO)Cc1cc(n(C)n1)CSc1cc(c3ccccc3c1)OCCCc1c(C(=O)O)n(C)c3c-2c(Cl)ccc13 [compound 50, (Z)-1^6-chloro-4-(2-hydroxyethyl)-1^1,2^1,2^5,6^1-tetramethyl-1^1H,2^1H,6^1H-10-oxa-8-thia-4-aza-1(7,3)-indola-2(4,3), 6(3,5)-dipyrazola-9(3,1)-naphthalenacyclotridecaphane-1^2-carboxylic acid] | 0.02 | 0.066 | 0.388
9 | Cn1nc2cc1CSc1cc(c3ccc(F)cc3c1)OCCCc1c(C(=O)O)n(C)c3c(c(Cl)ccc13)-c1c(C(F)F)nn(C)c1CN(S(C)(=O)=O)C2 [compound 51, (Z)-1^6-chloro-2^3-(difluoromethyl)-9^6-fluoro-1^1,2^1,6^1-trimethyl-4-(methylsulfonyl)-1^1H,2^1H,6^1H-10-oxa-8-thia-4-aza-1(7,3)-indola-2(4,5),6(3,5)-dipyrazola-9(3,1)-naphthalenacyclotridecaphane-1^2-carboxylic acid] | 0.019 | 0.11 | 0.152

The next lines start with results.

Row | IC50 [1] [µM] | IC50 (NCI-H929 cells) [µM] | SMILES | IC50 (OPM-2 cells) [µM]
10 | 0.0149 | 4.97 | Cn1nc2cc1CSc1cc(c3ccccc3c1)OCCCc1c(C(=O)O)n(C)c3c(c(Cl)ccc13)-c1c(nn3c1CN(S(C)(=O)=O)CC3)CSC2 [compound 25, (Z)-1^6-chloro-1^1,6^1-dimethyl-2^5-(methylsulfonyl)-2^4,2^5,2^6,2^7-tetrahydro-1^1H,6^1H-10-oxa-4,8-dithia-2(3,2)-pyrazolo[1,5-a]pyrazina-1(7,3)-indola-6(3,5)-pyrazola-9(3,1)-naphthalenacyclotridecaphane-1^2-carboxylic acid] | 9.05
11 | 0.0159 | 0.055 | Cn1nc2cc1CSc1cc(c3ccc(F)cc3c1)OCCCc1c(C(=O)O)n(C)c3c(c(Cl)ccc13)-c1c(nn3c1CCCCC3)CSC2 [compound 28, (Z)-1^6-chloro-9^6-fluoro-1^1,6^1dimethyl-2^5,2^6,2^7,2^8-tetrahydro-1^1H,2^4H,6^1H-10-oxa-4,8-dithia-2(3,2)-pyrazolo[1,5-a]azepina-1(7,3)-indola-6(3,5)-pyrazola-9(3,1)-naphthalenacyclotridecaphane-1^2-carboxylic acid] | 0.184
12 | 0.017 | 0.261 | Cn1nc2cc1CSc1cc(c3ccc(F)cc3c1)OCCCc1c(C(=O)O)n(C)c3c(c(Cl)ccc13)-c1c(nn3c1COCC3)CN(S(C)(=O)=O)C2 [compound 42, (Z)-1^6-chloro-9^6-fluoro-1^1,6^1-dimethyl-4-(methylsulfonyl)-2^6,2^7-dihydro-1^1H,2^4H,6^1H-10-oxa-8-thia-4-aza-2(3,2)-pyrazolo[5,1-c][1,4]oxazina-1(7,3)-indola-6(3,5)-pyrazola-9(3,1)-naphthalenacyclotridecaphane-1^2-carboxylic acid] | 0.357
13 | 0.012 | 0.061 | Cc1c2c(nn1C)CN(S(=O)(=O)C(F)(F)F)Cc1cc(n(C)n1)CSc1cc(c3ccc(F)cc3c1)OCCCc1c(C(=O)O)n(C)c3c-2c(Cl)ccc13 [compound 46, (Z)-1^6-chloro-9^6-fluoro-1^1,2^1,2^5,6^1-tetramethyl-4-((trifluoromethyl)sulfonyl)-1^1H,2^1H,6^1H-10-oxa-8-thia-4-aza-1(7,3)-indola-2(4,3),6(3,5)-dipyrazola-9(3,1)-naphthalenacyclotridecaphane-1^2-carboxylic acid] | 0.049
